From US12643871B2, “Aryl formamide compound containing chiral sulfur oxide or salt thereof, preparation method, herbicidal composition and use thereof” (Qingdao Kingagroot Chemical Compound Co., Ltd., priority 2019, dated 2026)

Legend:
Assay in all cases: Weeding effect in post-emergence stage
Assay type in all cases: in vivo
Details in all cases: 250 g/ha; 2 leaf stage; 15 days after application; fresh weight control rate
Amaranthus retroflexus = test system: Amaranthus retroflexus
Excerpt: (§1) The activity level criteria for harmful plant damage (i.e., growth control rate) are as follows: • Level 5: growth control rate is above 85%; • Level 4: growth control rate is greater than or equal to 60% and less than 85%; • Level 3: growth control rate is greater than or equal to 40% and less than 60%; • Level 2: growth control rate is greater than or equal to 20% and less than 40%; • Level 1: growth control rate is greater than or equal to 5% and less than 20%; • Level 0: growth control rate is less than 5%.
(§2) The above growth control rates are fresh weight control rates.
(§3) Experiment on weeding effect in post-emergence stage: monocotyledonous and dicotyledonous weed seeds (Descurainia sophia, Capsella bursa-pastoris, Galium aparine, Stellaria media, Lithospermum arvense, Rorippa indica, Alopecurus aequalis, Beckmannia syzigachne, Sclerochloa dura, Phleum paniculatum, Bromus japonicus, Aegilops tauschii, Phalaris arundinacea, Amaranthus retroflexus, Chenopodiaceae, Commelina communis, Sonchus arvensis, convolvulus arvensis, Cirsium setosum, Solanum nigrum, Acalypha australis, Digitaria sanguinalis, Echinochloa crusgalli, Setaria viridis, Setaria glauca, Leptochloa chinensis, Monochoria vaginalis, Sagittaria trifolia, Scirpus juncoides, Cyperus rotundus, Cyperus iria, Cyperus difformis, Fimbristylis, Portulaca oleracea, Xanthium sibiricum, Pharbitis nil) and major crop seeds (wheat, corn, rice, soybean, cotton, oilseed rape, millet, sorghum, potato, sesame, ricinus) were placed in plastic pots filled with soil, then covered with 0.5-2 cm of soil, allowed to grow in a good greenhouse environment. After 2 weeks of sowing, the test plants were treated in the 2 leaf stage. The tested compounds of the present invention were respectively dissolved in acetone, then added with Tween 80 and 1.5 liter/ha of emulsifiable concentrate of methyl oleate as synergist, diluted with a certain amount of water to obtain a solution with a certain concentration, and sprayed with a spray tower onto the plants. After the application, the plants were cultured for 15 days in the greenhouse, and then the experimental results of the weeding were counted. The doses of the used compounds were 500, 250, 125, 60, 30, 15 g/ha, and the averages were obtained by repeating for three times.

Echinochloa crusgali = test system: Echinochloa crusgali
Excerpt: as §1, §2, §3

Digitaria sanguinalis = test system: Digitaria sanguinalis
Excerpt: as §1, §2, §3

Row | Compound | weeding effect in post-emergence stage, activity level (growth control rate), Amaranthus retroflexus (Amaranthus retroflexus) | weeding effect in post-emergence stage, activity level (growth control rate), Echinochloa crusgali (Echinochloa crusgali) | weeding effect in post-emergence stage, activity level (growth control rate), Digitaria sanguinalis (Digitaria sanguinalis)
1 | Cc1nnc(NC(=O)c2ccc(Cl)c([S@@+](C)[O-])c2Cl)o1 [Compound 621] | 5 (Level 5: growth control rate is above 85%) | 5 (Level 5: growth control rate is above 85%) | 5 (Level 5: growth control rate is above 85%)
2 | CCn1nnnc1NC(=O)c1ccc(S(C)(=O)=O)c([S@+]([O-])CC)c1C [Compound 629] | 5 (Level 5: growth control rate is above 85%) | 5 (Level 5: growth control rate is above 85%) | 5 (Level 5: growth control rate is above 85%)
3 | Cc1c(C(=O)Nc2nnnn2C)ccc(S(C)(=O)=O)c1[S@+]([O-])CC(C)O (some centres unmarked) [Compound 620] | 5 (Level 5: growth control rate is above 85%) | 5 (Level 5: growth control rate is above 85%) | 5 (Level 5: growth control rate is above 85%)
4 | CC[S@@+]([O-])c1c(S(C)(=O)=O)ccc(C(=O)Nc2nnnn2CCOC)c1C [Compound 622] | 5 (Level 5: growth control rate is above 85%) | 5 (Level 5: growth control rate is above 85%) | 5 (Level 5: growth control rate is above 85%)
5 | CCC[S@@+]([O-])c1c(C(F)(F)F)ccc(C(=O)Nc2ncn[nH]2)c1F [Compound 600] | 5 (Level 5: growth control rate is above 85%) | 5 (Level 5: growth control rate is above 85%) | 5 (Level 5: growth control rate is above 85%)
6 | Cc1c(C(=O)Nc2nnnn2C)ccc(S(C)(=O)=O)c1[S@+]([O-])CCO [Compound 607] | 5 (Level 5: growth control rate is above 85%) | 5 (Level 5: growth control rate is above 85%) | 5 (Level 5: growth control rate is above 85%)
7 | Cc1c(C(=O)Nc2nnnn2C)ccc(S(C)(=O)=O)c1[S+]([O-])COC(=O)C(C)(C)C (centres unmarked) [Compound 605] | 5 (Level 5: growth control rate is above 85%) | 5 (Level 5: growth control rate is above 85%) | 5 (Level 5: growth control rate is above 85%)
8 | Cc1nnc(NC(=O)c2ccc(S(C)(=O)=O)c([S@+]([O-])CCC#N)c2C)o1 [Compound 610] | 5 (Level 5: growth control rate is above 85%) | 5 (Level 5: growth control rate is above 85%) | 5 (Level 5: growth control rate is above 85%)
9 | Cc1c(C(=O)Nc2nnnn2C)ccc(S(C)(=O)=O)c1[S@+]([O-])CCCC(F)(F)F [Compound 601] | 5 (Level 5: growth control rate is above 85%) | 5 (Level 5: growth control rate is above 85%) | 5 (Level 5: growth control rate is above 85%)
10 | CSCC[S@@+]([O-])c1c(C(F)(F)F)ccc(C(=O)Nc2nnnn2C)c1SC [Compound 595] | 5 (Level 5: growth control rate is above 85%) | 5 (Level 5: growth control rate is above 85%) | 5 (Level 5: growth control rate is above 85%)
11 | Cc1nnc(NC(=O)c2ccc(S(C)(=O)=O)c([S@+]([O-])CCC(C)(C)C)c2C)o1 [Compound 602] | 5 (Level 5: growth control rate is above 85%) | 5 (Level 5: growth control rate is above 85%) | 5 (Level 5: growth control rate is above 85%)
12 | C#CCC[S@@+]([O-])c1c(S(C)(=O)=O)ccc(C(=O)Nc2nnc(C)o2)c1C [Compound 624] | 5 (Level 5: growth control rate is above 85%) | 5 (Level 5: growth control rate is above 85%) | 5 (Level 5: growth control rate is above 85%)
13 | Cc1c(C(=O)Nc2nnnn2C)ccc(S(C)(=O)=O)c1[S@+]([O-])CCC(C)(C)C [Compound 603] | 5 (Level 5: growth control rate is above 85%) | 5 (Level 5: growth control rate is above 85%) | 5 (Level 5: growth control rate is above 85%)
14 | Cc1nnc(NC(=O)c2ccc(S(C)(=O)=O)c([S@+]([O-])CC(=O)N(C)C)c2C)o1 [Compound 604] | 5 (Level 5: growth control rate is above 85%) | 5 (Level 5: growth control rate is above 85%) | 5 (Level 5: growth control rate is above 85%)
15 | Cc1nnc(NC(=O)c2ccc(C(F)(F)F)c([S@+]([O-])CC(=O)OC(C)(C)C)c2F)o1 [Compound 199] | 5 (Level 5: growth control rate is above 85%) | 5 (Level 5: growth control rate is above 85%) | –
16 | CCC[S@@+]([O-])c1c(S(C)(=O)=O)ccc(C(=O)Nc2nnnn2C)c1C [Compound 512] | 5 (Level 5: growth control rate is above 85%) | 5 (Level 5: growth control rate is above 85%) | –
17 | CC[S@@+]([O-])c1c(C(F)(F)F)ccc(C(=O)N(C(C)=O)c2nnc(C)o2)c1F [Compound 216] | 5 (Level 5: growth control rate is above 85%) | 5 (Level 5: growth control rate is above 85%) | –
18 | Cc1c(C(=O)Nc2nnnn2C)ccc(S(C)(=O)=O)c1[S@+]([O-])C(C)C [Compound 513] | 5 (Level 5: growth control rate is above 85%) | 5 (Level 5: growth control rate is above 85%) | –
19 | COC(=O)CC[S@@+]([O-])c1c(C(F)(F)F)ccc(C(=O)Nc2nnc(C)o2)c1OC [Compound 354] | 5 (Level 5: growth control rate is above 85%) | 5 (Level 5: growth control rate is above 85%) | –
20 | CC[S@@+]([O-])c1c(C(F)(F)F)ccc(C(=O)Nc2nnc(C3CC3)o2)c1OC [Compound 428] | 5 (Level 5: growth control rate is above 85%) | 5 (Level 5: growth control rate is above 85%) | –
21 | CCC[S@@+]([O-])c1c(S(C)(=O)=O)ccc(C(=O)Nc2nnc(C)o2)c1C [Compound 492] | 5 (Level 5: growth control rate is above 85%) | 5 (Level 5: growth control rate is above 85%) | –
